Consider one compound from paper PMC4049391, “Cadmium exposure and sulfate limitation reveal differences in the transcriptional control of three sulfate transporter (Sultr1;2) genes in Brassica juncea” (BMC Plant Biology, 2014).

In the experiment the target is T1, AtSultr2;1 (Arabidopsis thaliana, UniProt O04722).
T1 construct: gene SULTR2; full-length ORF from Arabidopsis root RNA in pESC-TRP (GAL10 promoter), expressed in Saccharomyces cerevisiae CP154-7A
T1 sequence (O04722 1-677): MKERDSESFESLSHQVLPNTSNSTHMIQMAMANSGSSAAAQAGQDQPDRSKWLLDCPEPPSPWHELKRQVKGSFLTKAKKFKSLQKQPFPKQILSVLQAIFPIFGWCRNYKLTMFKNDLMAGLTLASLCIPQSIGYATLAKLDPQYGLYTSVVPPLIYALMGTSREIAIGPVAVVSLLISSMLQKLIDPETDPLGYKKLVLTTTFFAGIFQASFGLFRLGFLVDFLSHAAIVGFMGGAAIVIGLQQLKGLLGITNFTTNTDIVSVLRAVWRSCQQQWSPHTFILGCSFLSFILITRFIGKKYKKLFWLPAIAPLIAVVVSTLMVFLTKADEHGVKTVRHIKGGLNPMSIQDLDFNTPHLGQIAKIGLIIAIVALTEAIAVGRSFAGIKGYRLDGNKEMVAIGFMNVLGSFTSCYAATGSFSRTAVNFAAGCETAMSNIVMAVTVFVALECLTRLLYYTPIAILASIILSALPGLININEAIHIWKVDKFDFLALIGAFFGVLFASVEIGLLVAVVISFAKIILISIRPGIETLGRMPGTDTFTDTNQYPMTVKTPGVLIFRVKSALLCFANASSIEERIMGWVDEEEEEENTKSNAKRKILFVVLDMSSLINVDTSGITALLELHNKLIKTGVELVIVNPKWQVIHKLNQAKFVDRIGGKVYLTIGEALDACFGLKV
Description: growth rate of complemented yeast versus sulfate, Michaelis-Menten fit. In kind it is cell-based. The note with it: growth constant as estimate of apparent Km; sulfate 0-3 mM as sole sulfur source, 28°C; yeast CP154-7A.

As for `O=S(=O)(O)O` [sulfate], the kG entry is recorded as “Estimation of the growth constant (kG) for sulfate”.
